According to patent US20240299405A1, “APPLICATION OF ATP POTASSIUM CHANNEL MODIFIER IN PREPARATION OF ANTI-DIABETIC NEPHROPATHY DRUG” (HANGZHOU QIAN BIOTECHNOLOGY LTD, priority 2020, published 2024):

Tests used:
[1] = tested on: STZ diabetic rat models (diabetic nephropathy); assay: Urine microalbumin (mALB) by ELISA in STZ plus high-fat diet diabetic nephropathy rat model; type: in vivo, SD rats; conditions: for mALB, urine microalbumin value of each KATP agonist: week 30, mean ± SE; for effect on reducing the amount of microalbumin in diabetic nephropathy urine compared with the negative control group: week 30, p<0.05; for mALB, 20 Week: week 20, mean ± SE; for mALB, 24 Week: week 24, mean ± SE; for mALB, 26 Week: week 26, mean ± SE; for mALB, 32 Week: week 32, mean ± SE; for mALB, 35 Week: week 35, mean ± SE
Description: STZ substantially and excessively damages islet-β cells through chemical toxicity (Saini K, Thompson C, Winterford C M, Walker N I, Cameron D P. Streptozotocin at low doses induces apoptosis and at high doses causes necrosis in a murine pancreatic b cell line, INS1[J]. International Union of Biochemistry and Molecular Biology Life. 1996, 39(6): 1229-1236). The pathophysiological characteristics of STZ modeled rats are relatively close to that of humans. Their blood can be collected repeatedly to monitor index changes and enough kidney tissues can be obtained for subsequent tissue section analysis. Therefore, STZ diabetic rat models are used. In addition, due to the high toxicity of STZ, multiple injections at low doses can establish better models. Keep feeding a high-fat diet daily after modeling until the end of the experiment. A high-fat diet can cause diabetic nephropathy in STZ rats.
Urine microalbumin (mALB) is an early diagnostic index of kidney injury, and mALB was used as an indicator to test whether rats entered diabetic nephropathy, and rat weight and blood glucose levels were used to observe whether the model was successful.
mALB is one of the most important monitoring indicators of nephropathy. […] Since the measurement results of mALB in humans and mice are different. The difference between the dosing group (group C) and the negative control group (group B) is used to judge whether the test results of this experiment are valid. The normal mALB value in this experiment was only used as a reference value, which is using the data of group A (blank control group).
At the beginning of the experiment, urine and blood of all rats were collected for the detection of the required indicators, and the initial indicators were used as a timely reference for the disease progression of the rats. After the start of the experiment, all rats were sampled with the Elisa kit every other month to detect mALB and other data.
Rat urine collection: urine is collected by metabolic cage, urine is collected after 24 h, the total amount of urine is recorded, and the urine output at 24 h is calculated. Take 1 ml of urine, centrifuge and take the supernatant and store at −80° C. for testing.
A 24 h urine sample was collected from rats for testing, and the collected sample was centrifuged at 15 min, centrifuged at 4° C. at 1000 ref for 20 min, and the mALB value was detected by supernatant or stored at −20° C.
Before starting the experiment, you need to do the following: • (1) Place all reagents (including specimens) in the room and equilibrate to room temperature (18-25° C.) before use. • (2) The standard is diluted to the corresponding gradient. Take a bottle of standard, add 1 mL of standard diluent (at this time the concentration is 1000 μg/mL), mix gently, let stand at room temperature for 10 minutes, and gently shake every 2 minutes to mix. After mixing, dilute it to 100 μg/mL, take 4 EP tubes (add 600 μL of standard dilute to each EP tube), triple dilute the standard from a concentration of 100 μg/mL to 33.33 μg/mL, 11.11 μg/mL, 3.70 μg/mL, 1.23 μg/mL, and use the standard dilution as a blank well (0 μg/mL). • (3) Working solution of the detection solution A: add 150 μL of reagent dilution to the mother liquor of the detection solution A, stand at room temperature for 10 minutes, and shake gently every 2 minutes to have a well-mix. Before use, dilute with the detection diluent A at 1:100, and mix the solution well with the shaker. Calculate the required amount at 50 μL/well for dilution before use (0.1-0.2 mL more needs to be prepared). • (4) Working solution of the detection solution B: Detection solution B needs to be centrifuged at 5000 ref for 10 s before each use to deposition the liquid from the tube wall or cap to the bottom of the tube. Immediately before use, dilute with the detection diluent B at 1:100, and mix them well with the shaker. […]

[2] = tested on: STZ diabetic rats; assay: Glomerular filtration rate in STZ diabetic rats; type: in vivo, SD rats; conditions: groups C and D (0.5 and 5 mg/kg) versus group B
Experimental: (§1) Due to the large body surface area of rats, the doses of groups C, D and E were equivalent to 0.095 mg/kg, 0.95 mg/kg, and 9.5 mg/kg in humans (according to the literature: Anroop B Nair, Shery Jacob. A simple practice guide for dose conversion between animals and human. Journal of Basic and Clinical Pharmacy. 2016, 7(2):27-31.), with 95% binding capacity to albumin, similar to humans. All groups of rats were fed high-fat feed.

[3] = tested on: STZ diabetic rats; conditions: rat, in vivo, 50 mg/kg/day
Experimental: as §1
In addition, rats in the high-dose E group all died before diabetic nephropathy was modeled, of which 13 died in the first four months and the other 5 died in the fifth and sixth months. It was speculated that the death may be related to the high blood glucose elevation of diabetic rats. Therefore, the statistics of Table 1, FIG. 1, FIG. 2, FIG. 3 and FIG. 5 are not included those rats in group E.

[4] = tested on: rat kidney; assay: HE staining of rat kidney sections (glomeruli, tubules); type: in vivo, SD rats; conditions: 5 mg/kg (medium-dose) group, six-month rat, renal HE×400
Description: In addition, clinically patients with nephropathy will have an increase in glomerular volume and a higher number of cells in the early stage, and with the progression of the disease, there will be widening of the mesangial area, the mesangial cells and mesangial stroma will increase, and the tubular epithelial cells will have cell edema, that is, often called granular degeneration or vacuolar degeneration, tubulointerstitial fibrosis and other symptoms. In this experiment, the glomerular volume changes of rat kidney sections were observed by HE staining, and the results of renal staining sections in each experimental group are shown in FIG. 5.

[5] = group C, 0.5 mg/kg per day gavage
[6] = group D, 5 mg/kg per day gavage

## C/N=C(/S)[C@]1(c2cccnc2)CCCC[S@@+]1[O-] [Aprikalim]
[1]; 1 mg/kg group
  mALB, urine microalbumin value of each KATP agonist: 59.7 ± 25.4 µg/mL
[1]
  effect on reducing the amount of microalbumin in diabetic nephropathy urine compared with the negative control group: significant effect

## CC1(C)Oc2ccc(C#N)cc2C(N2CCCC2=O)C1O (centres unmarked) [Cromakalim]
[1]; 1 mg/kg group
  mALB, urine microalbumin value of each KATP agonist: 77.6 ± 45.6 µg/mL
[1]
  effect on reducing the amount of microalbumin in diabetic nephropathy urine compared with the negative control group: significant effect

## CC1=Nc2ccc(Cl)cc2S(=O)(=O)N1 [Diazoxide, 7-chloro-3-methyl-2-hydro-1,2,4-benzothiadiazine 1,1-dioxide]
[2]
  effect on the increase of compensatory glomerular filtration rate: could reduce the increase of glomerular filtration rate
[3]
  death of rats: all died
[1]; 0.5 mg/kg
  progression of diabetic nephropathy: can delay the progression of diabetic nephropathy
[1]; [5]
  mALB, 20 Week: 15.6 ± 2.9 µg/mL
  mALB, 26 Week: 28.4 ± 10.8 µg/mL
  mALB, 32 Week: 149.5 ± 50.3 µg/mL
  mALB, 35 Week: 108.0 ± 33.7 µg/mL
[1]; group C, 0.5 mg/kg per day gavage, 0.5 mg/kg/day
  mALB, 24 Week: 18.2 ± 4.7 µg/mL
[1]; [6]
  mALB, 20 Week: 14.5 ± 3.0 µg/mL
  mALB, 26 Week: 19.9 ± 7.4 µg/mL
  mALB, 32 Week: 105.5 ± 38.9 µg/mL
  mALB, 35 Week: 52.8 ± 23.4 µg/mL
[1]; group D, 5 mg/kg per day gavage, 5 mg/kg/day
  mALB, 24 Week: 19.8 ± 4.3 µg/mL
[4]
  kidney histology, HE staining: some glomeruli significantly increased in size
[4]; listed as diazoxide
  kidney histology, HE staining: tubular vacuolar degeneration

## O=C(NCCO[N+](=O)[O-])c1cccnc1 [Nicorandil]
[1]; 0.5 mg/kg group
  mALB, urine microalbumin value of each KATP agonist: 78.2 ± 35.1 µg/mL
[1]
  effect on reducing the amount of microalbumin in diabetic nephropathy urine compared with the negative control group: significant effect

## CC(N/C(=N\C#N)Nc1ccncc1)C(C)(C)C (centres unmarked) [Pinacidil]
[1]; 1 mg/kg group
  mALB, urine microalbumin value of each KATP agonist: 99.7 ± 50.7 µg/mL
[1]
  effect on reducing the amount of microalbumin in diabetic nephropathy urine compared with the negative control group: significant effect

## Nc1cc(N2CCCCC2)nc(N)[n+]1[O-] [minoxidil]
[1]; 0.5 mg/kg group
  mALB, urine microalbumin value of each KATP agonist: 130.4 ± 60.3 µg/mL

## COC(=O)C1=C(C)NC(C)=C(C(=O)OCCN(C)Cc2ccccc2)C1c1cccc([N+](=O)[O-])c1 (centres unmarked) [nicardipine]
[1]; 5 mg/kg group
  mALB, urine microalbumin value of each KATP agonist: 55.4 ± 25.6 µg/mL

## CCC1NC(=O)c2cc(S(N)(=O)=O)c(Cl)cc2N1 (centres unmarked) [quinethazone]
[1]; 1 mg/kg group
  mALB, urine microalbumin value of each KATP agonist: 114.6 ± 45.3 µg/mL
